These results are taken from ChEMBL document CHEMBL4715742, “Design, synthesis and cytotoxic activities of novel 2,5-diketopiperazine derivatives” (Eur J Med Chem, 2016).

For orientation: IC50 means the concentration needed to halve the response being measured.

Test [1] has as its system U-937. Nature of the test: Induction of apoptosis in human U-937 cells assessed as apoptotic ratio at 0.015 uM measured after 48 hrs by annexinV/FITC-propidium iodide staining based flow cytometry (reference value: 5.2 +/- 0.2 %). It is filed as functional.
Test [2] deals with U-937. Nature of the test: Induction of apoptosis in human U-937 cells assessed as necrotic cells at 0.015 uM measured after 24 hrs by annexinV/FITC-propidium iodide staining based flow cytometry (reference value: 1.12 to 1.48 %). In kind it is functional.
The subject of test [3] is U-937. As to the kind of experiment: Induction of apoptosis in human U-937 cells assessed as late apoptotic cells at 0.015 uM measured after 24 hrs by annexinV/FITC-propidium iodide staining based flow cytometry (reference value: 2.18 to 2.22 %). In kind it is functional. A general note: In flow cytometry, cells or beads pass a laser one at a time.
A further test relates to DU-145. As to the kind of experiment: Cytotoxicity against human DU-145 cells assessed as reduction in cell viability measured after 72 hrs by CCK8 assay. It is filed as functional, cell-based. A general note: Tetrazolium assays rely on reduction of a dye to a coloured formazan, in cell work by metabolically active cells.
The test system of test [4] is U-937. Nature of the test: Induction of apoptosis in human U-937 cells assessed as necrotic cells at 0.015 uM measured after 48 hrs by annexinV/FITC-propidium iodide staining based flow cytometry (reference value: 0.794 to 0.955 %). It is filed as functional.
Test [5] concerns U-937. Nature of the test: Cytotoxicity against human U-937 cells assessed as reduction in cell viability measured after 72 hrs by CCK8 assay. In kind it is functional, cell-based.
The test system of test [6] is U-937. As to the kind of experiment: Induction of apoptosis in human U-937 cells assessed as late apoptotic cells at 0.015 uM measured after 48 hrs by annexinV/FITC-propidium iodide staining based flow cytometry (reference value: 3.27 to 3.41 %). In kind it is functional.
A further test deals with K562. As to the kind of experiment: Cytotoxicity against human K562 cells assessed as reduction in cell viability measured after 72 hrs by CCK8 assay. In kind it is functional, cell-based.
In test [7] the test system is U-937. Nature of the test: Induction of apoptosis in human U-937 cells assessed as viable cells at 0.015 uM measured after 24 hrs by annexinV/FITC-propidium iodide staining based flow cytometry (reference value: 95 to 95.1 %). It is filed as functional. As to conditions: read-out: Activity; call rule not given here.
A further test has as its system HL-60. Nature of the test: Cytotoxicity against human HL-60 cells assessed as reduction in cell viability measured after 72 hrs by CCK8 assay. In kind it is functional, cell-based.
Test [8] deals with U-937. As to the kind of experiment: Induction of apoptosis in human U-937 cells assessed as early apoptotic cells at 0.015 uM measured after 48 hrs by annexinV/FITC-propidium iodide staining based flow cytometry (reference value: 1.78 to 1.88 %). In kind it is functional.
The test system of a further test is HeLa. As to the kind of experiment: Cytotoxicity against human HeLa cells assessed as reduction in cell viability measured after 72 hrs by CCK8 assay. It is filed as functional, cell-based.
In the next test the test system is HT-29. Nature of the test: Cytotoxicity against human HT-29 cells assessed as reduction in cell viability measured after 72 hrs by CCK8 assay. It is filed as functional, cell-based.
The test system of test [9] is U-937. Nature of the test: Induction of apoptosis in human U-937 cells assessed as viable cells at 0.015 uM measured after 48 hrs by annexinV/FITC-propidium iodide staining based flow cytometry (reference value: 93.7 to 94.2 %). As to conditions: read-out: Activity. It is filed as functional.
The test system of another test is A549. As to the kind of experiment: Cytotoxicity against human A549 cells assessed as reduction in cell viability measured after 72 hrs by CCK8 assay. It is filed as functional, cell-based.
Test [10] has as its system U-937. Nature of the test: Induction of apoptosis in human U-937 cells assessed as apoptotic ratio at 0.015 uM measured after 24 hrs by annexinV/FITC-propidium iodide staining based flow cytometry (reference value: 3.7 +/- 0.3 %). It is filed as functional.
Another test has as its system MCF7. As to the kind of experiment: Cytotoxicity against human MCF7 cells assessed as reduction in cell viability measured after 72 hrs by CCK8 assay. In kind it is functional, cell-based.
Test [11] has as its system U-937. Nature of the test: Induction of apoptosis in human U-937 cells assessed as early apoptotic cells at 0.015 uM measured after 24 hrs by annexinV/FITC-propidium iodide staining based flow cytometry (reference value: 1.28 to 1.68 %). It is filed as functional.
The mark [12] stands for this setting: Homo sapiens, DU-145, 72 h, read-out: IC50.
The mark [13] stands for this setting: Homo sapiens, U-937, 72 h, read-out: IC50.
The mark [14] stands for this setting: Homo sapiens, K562, 72 h, read-out: IC50.
Where [15] appears, read: Homo sapiens, HL-60, 72 h, read-out: IC50.
[16] abbreviates: Homo sapiens, HeLa, 72 h, read-out: IC50.
The mark [17] stands for this setting: Homo sapiens, HT-29, 72 h, read-out: IC50.
The mark [18] stands for this setting: Homo sapiens, A549, 72 h, read-out: IC50.
Setting [19] is: Homo sapiens, MCF7, 72 h, read-out: IC50.

As to `CC(C)(C)c1[nH]cnc1/C=c1\[nH]c(=O)/c(=C/c2ccccc2)[nH]c1=O` [PLINABULIN], the Activity is given as 38.6% with U-937 [1]; 1.13% in the test on U-937 [2]; 19.3% with U-937 [3]; 1.99% in the test on U-937 [4]; 31.1% in the test with U-937 [6]; 6.44% in the test with U-937 [8]. Further, the values for the Activity in the test with U-937 [10] and in the test with U-937 [11] were 31.8% and 11.7%, respectively. Moreover, the IC50 in the test with DU-145 (setting [12]) is 14 nM; in the test with U-937 [5] (setting [13]), 6.8 nM; in the test with K562 (setting [14]) it was 6.3 nM; in the test on HL-60 (setting [15]) it was 14.8 nM; in the test with HeLa (setting [16]), 8.4 nM; with HT-29 (setting [17]), 13 nM. The half-maximal inhibitory concentration (IC50) in the test with A549 (setting [18]) stood at 5.5 nM; with MCF7 (setting [19]) it was 12.6 nM. For the same compound, the figures for the viability at 0.015 µM with U-937 [7] and in the test with U-937 [9] were 66.9% and 58.3%, respectively.

Turning to `C=CCn1c(=O)/c(=C/CCC)[nH]c(=O)/c1=C/c1cccc(OC)c1`, the IC50 entry in the test on DU-145 (du-145), in the test on U-937 [5] (u-937), with K562 (k562), with HL-60 (hl-60), in the test with HeLa (hela) and in the test with HT-29 (ht-29) was “Not Active” in each case. In addition, the IC50 result in the test on A549 (a549) and in the test with MCF7 (mcf7) was “Not Active” each time.

As for `C=CCn1c(=O)/c(=C/CCCCCCCCCC)[nH]c(=O)/c1=C/c1cccc(OC)c1`, the IC50 result with DU-145 (du-145), in the test with U-937 [5] (u-937), with K562 (k562), with HL-60 (hl-60), in the test on HeLa (hela) and in the test with HT-29 (ht-29) was “Not Active” throughout. Besides, the IC50 result with A549 (a549) and with MCF7 (mcf7) was “Not Active” each time.

For the compound `C=CCn1c(=O)/c(=C/CCCCCCCCCC)[nH]c(=O)/c1=C/c1ccccc1OC`, the half-maximal inhibitory concentration (IC50) result with DU-145 (du-145), in the test on U-937 [5] (u-937), with K562 (k562), with HL-60 (hl-60), in the test on HeLa (hela) and in the test on HT-29 (ht-29) was “Not Active” throughout. The IC50 result in the test with A549 (a549) and with MCF7 (mcf7) was “Not Active” each time.

As to `C=CCn1c(=O)/c(=C/CCCCC)[nH]c(=O)/c1=C/c1ccccc1OC`, the IC50 with DU-145 (setting [12]) was 10700 nM; in the test with U-937 [5] (setting [13]), 1900 nM; with K562 (setting [14]) it was 2600 nM; in the test with HL-60 (setting [15]), 13400 nM; in the test with HeLa (setting [16]), 5700 nM; in the test on HT-29 (setting [17]) it was 7400 nM. The half-inhibitory concentration (IC50) in the test with A549 (setting [18]) worked out at 8700 nM; in the test with MCF7 (setting [19]) it was 6900 nM.

As for `C=CCn1c(=O)/c(=C/CC)[nH]c(=O)/c1=C/c1cccc(OC)c1`, the IC50 entry with DU-145 (du-145), in the test on U-937 [5] (u-937), in the test with K562 (k562), with HL-60 (hl-60), in the test with HeLa (hela) and with HT-29 (ht-29) was “Not Active” each time. Moreover, the 50% inhibitory concentration (IC50) entry with A549 (a549) and in the test with MCF7 (mcf7) was “Not Active” throughout.

Take `Cn1c(=O)/c(=C/c2ccccc2)[nH]c(=O)/c1=C/c1ccccc1`: the 50% inhibitory concentration (IC50) with DU-145 (setting [12]) is 9400 nM; with U-937 [5] (setting [13]), 1400 nM; in the test with K562 (setting [14]) it was 2900 nM; with HL-60 (hl-60), “Not Active”; with HeLa (setting [16]), 4900 nM; in the test with HT-29 (setting [17]), 6500 nM. Besides, the IC50 came to 7800 nM with A549 (setting [18]) and 5100 nM in the test with MCF7 (setting [19]).

Turning to `C=CCn1c(=O)/c(=C/CCCCCCCC)[nH]c(=O)/c1=C/c1ccc(OC)cc1`, the IC50 stood at 7900 nM with DU-145 (setting [12]); 3700 nM in the test on U-937 [5] (setting [13]); 5600 nM in the test with K562 (setting [14]); 26500 nM in the test with HL-60 (setting [15]); 8100 nM in the test with HeLa (setting [16]); 10800 nM in the test with HT-29 (setting [17]). The IC50 in the test on A549 (setting [18]) amounted to 15800 nM; in the test with MCF7 (setting [19]), 10100 nM.

As for `C=CCn1c(=O)/c(=C/CCCCCCCCCCC)[nH]c(=O)/c1=C/c1ccccc1OC`, the concentration for half-maximal inhibition (IC50) result with DU-145 (du-145), with U-937 [5] (u-937), with K562 (k562), with HL-60 (hl-60), with HeLa (hela) and with HT-29 (ht-29) was “Not Active” each time. Besides, the concentration for half-maximal inhibition (IC50) entry in the test with A549 (a549) and in the test with MCF7 (mcf7) was “Not Active” in each case.

As for `C=CCn1c(=O)/c(=C/CCCCCC)[nH]c(=O)/c1=C/c1ccc(OC)cc1`, the IC50 with DU-145 (setting [12]) was 2200 nM; in the test on U-937 [5] (setting [13]), 600 nM; in the test on K562 (setting [14]), 900 nM; in the test with HL-60 (setting [15]), 3400 nM; in the test with HeLa (setting [16]), 1600 nM; in the test with HT-29 (setting [17]), 1600 nM. For the same compound, the IC50 in the test on A549 (setting [18]) was determined as 2000 nM; in the test with MCF7 (setting [19]), 2400 nM.

For the compound `C=CCn1c(=O)/c(=C/CCCCCCC)[nH]c(=O)/c1=C/c1cccc(OC)c1`, the half-inhibitory concentration (IC50) entry in the test with DU-145 (du-145), with U-937 [5] (u-937), with K562 (k562), with HL-60 (hl-60), in the test with HeLa (hela) and in the test on HT-29 (ht-29) was “Not Active” throughout. For the same compound, the IC50 result in the test with A549 (a549) and in the test with MCF7 (mcf7) was “Not Active” each time.

`C=CCn1c(=O)/c(=C/CCCCCC)[nH]c(=O)/c1=C/c1cccc(OC)c1`: the half-maximal inhibitory concentration (IC50) entry in the test on DU-145 (du-145), with U-937 [5] (u-937), in the test with K562 (k562), in the test on HL-60 (hl-60), in the test with HeLa (hela) and with HT-29 (ht-29) was “Not Active” throughout. The IC50 result with A549 (a549) and with MCF7 (mcf7) was “Not Active” throughout.

As for `C=CCn1c(=O)/c(=C/CCCCC)[nH]c(=O)/c1=C/c1ccc(OC)cc1`, the IC50 with DU-145 (setting [12]) is 2100 nM; in the test on U-937 [5] (setting [13]), 500 nM; with K562 (setting [14]) it was 700 nM; with HL-60 (hl-60) it was “Not Active”; in the test on HeLa (setting [16]), 1100 nM; with HT-29 (setting [17]), 1700 nM. In addition, the values for the IC50 in the test with A549 (setting [18]) and with MCF7 (setting [19]) were 1900 nM and 2300 nM, respectively.
